Experimental data published in US6040149A, “Assay for identifying agents which act on the ceramide-activated protein kinase, kinase suppressor of ras, and methods of using said agents” (priority 1997, dated 2000).

Tests used:
KSR/Raf-1 complex = assay: Co-immunoprecipitation of KSR and Raf-1 from treated COS-7 cells; assay type: cell-based, mouse KSR (COS-7 cells)
Procedure: FIG. […] Cells were lysed with NP-40 buffer and subjected to 4 hr of immunoprecipitation with anti-Raf-1 antibody. Two controls, KSR and KSR with ceramide treatment, received protein A conjugated sepharose beads without anti-Raf-1 antibody. […] Data represent one of four similar experiments.
Cell lysates were subjected to immunoprecipitation with anti-Flag antibody. Immunoprecipitated samples were handled as in FIG. 24A except Western blot analysis was performed with anti-Raf-1 antibody. Data represent one of three similar experiments.
Anti-Raf-1 antibody conjugated beads were prepared by overnight incubation of 2 μl of anti-Raf-1 antibody (a kind gift of Dr. Debbie Morrison) with 5 mg of the protein A conjugated sepharose beads, followed by washing three times with NP-40 lysis buffer. […] Lysates (0.8 mg total protein) were then incubated for 4 hrs with anti-Raf-1 bound sepharose beads or anti-Flag conjugated agarose beads. The beads were washed vigorously 5 times, boiled in Laemmli sample buffer, and proteins were separated on 7.5% SDS-PAGE. After electrophoresis, the gel was transferred to PVDF membrane and probed with anti-Flag antibody or anti-Raf-1 antibody.

KSR [1] = molecular target: T1, KSR (Mus musculus, UniProt Q61097); assay: KSR autophosphorylation after treatment of COS-7 cells expressing KSR; assay type: cell-based, mouse (KSR expressed in COS-7 cells)
T1 sequence (Q61097 1-873): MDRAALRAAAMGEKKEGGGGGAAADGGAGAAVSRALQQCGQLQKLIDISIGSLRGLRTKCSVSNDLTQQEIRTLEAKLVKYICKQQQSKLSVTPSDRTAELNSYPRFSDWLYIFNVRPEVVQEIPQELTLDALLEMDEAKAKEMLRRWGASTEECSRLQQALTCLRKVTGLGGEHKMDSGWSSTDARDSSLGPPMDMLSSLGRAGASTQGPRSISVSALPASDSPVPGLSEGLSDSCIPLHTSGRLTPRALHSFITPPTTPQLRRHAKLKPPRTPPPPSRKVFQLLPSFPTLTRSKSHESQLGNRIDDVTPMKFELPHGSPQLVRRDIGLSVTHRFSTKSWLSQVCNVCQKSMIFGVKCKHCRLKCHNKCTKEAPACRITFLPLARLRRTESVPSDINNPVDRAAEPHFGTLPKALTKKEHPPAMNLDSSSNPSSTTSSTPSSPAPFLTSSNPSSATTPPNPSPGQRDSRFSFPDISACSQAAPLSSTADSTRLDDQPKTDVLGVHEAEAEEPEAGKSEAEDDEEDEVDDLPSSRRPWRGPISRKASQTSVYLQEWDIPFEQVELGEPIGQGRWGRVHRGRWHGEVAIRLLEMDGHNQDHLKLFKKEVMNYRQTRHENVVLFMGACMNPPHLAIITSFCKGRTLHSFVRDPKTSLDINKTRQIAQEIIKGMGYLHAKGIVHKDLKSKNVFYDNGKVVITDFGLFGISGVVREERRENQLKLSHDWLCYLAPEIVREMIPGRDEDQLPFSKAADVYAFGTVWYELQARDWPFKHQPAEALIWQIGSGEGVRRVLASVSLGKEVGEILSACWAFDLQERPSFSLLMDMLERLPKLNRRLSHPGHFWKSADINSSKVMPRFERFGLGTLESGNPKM
Procedure: FIG. 23A--COS-7 cells were transfected as in FIG. 22A and placed in serum-free medium. After 4 hours, cells were stimulated for 10 min with the ceramide analog, C2-ceramide (Biomol), at the concentrations indicated. Cells were lysed with NP-40 lysis buffer, and Flag-tagged KSR (0.8 mg protein for each point) was immunoprecipitated and assayed for autophosphorylation activity as described in Experimental Procedures. The autoradiogram was exposed for 1 hour. KSR is expressed at similar levels in each sample as monitored by Western blot (data not shown). Data represent one of three similar experiments.
(§1) COS-7 cells expressing Flag-tagged KSR were stimulated with 10 nM TNFα for the times indicated and lysed with NP-40 buffer as in FIG. 2A. […] The autoradiogram was exposed for 1 hour. Data represent one of three similar experiments.
KSR was immunoprecipitated as above from 0.8 mg NP-40 lysate protein with 40 μl agarose-conjugated anti-Flag antibody at 4° C. for 4 hrs or overnight. […] The reaction was stopped by addition of Laemmli sample buffer. Samples were resolved by 7.5% sodium dodecyl sulfate-polyacrylamide gel electrophoresis (SDS-PAGE) and autoradiographed.

KSR [2] = molecular target: T1, KSR; assay: Phosphorylation and activation of recombinant Raf-1 by KSR immunoprecipitated from treated COS-7 cells; assay type: cell-based, mouse (KSR expressed in COS-7 cells); details: C2-ceramide 1 μM; TNFα 10 nM
Procedure: FIGS. 23B-23C--COS-7 cells expressing Flag-tagged KSR were stimulated with 1 μM C2-ceramide for 10 min and lysed with NP-40 buffer as in FIG. 23A. […] The autoradiogram was exposed for 1 hour. Data represent one of three experiments.
as §1
Immunoprecipitated KSR was incubated with reaction buffer A containing 0.5 mM ATP and a protein kinase inhibitor cocktail [20 μM PKC inhibitor peptide (UBI), 2 μM protein kinase A inhibitor peptide (UBI) and 20 μM R24571 (Sigma)] for 30 min at 22° C.

KSR [3] = molecular target: T1, KSR; assay: KSR activity toward Raf-1 peptides in vitro; assay type: biochemical, mouse (KSR immunoprecipitated from COS-7 cells); design: Raf-1 peptides as substrate
Procedure: The wild type peptide contains eight potential phosphorylation sites (shown in bold). Substitution of alanines and glycines for serines and threonines generated one peptide (TTLP-peptide) containing only two potential phosphorylation sites (Thr^268,269) and another peptide (AALP-peptide) with no potential phosphorylation sites.
FIG. 28A--Flag-tagged KSR was immunoprecipitated from 0.2 mg COS-7 lysate, and assayed with TTLP- or AALP-peptides in the presence of 30 nM ceramide (Avanti) or diluent (DMSO). Background counts per minute (cpm) derived from samples incubated with the AALP-peptide which contains no phosphorylation sites were subtracted from all points. Background cpm always represented less than 25% of the untreated total.
FIG. 28B--Flag-tagged KSR immunoprecipitated from 0.2 mg COS-7 lysate was assayed with TTLP- or AALP-peptides in the presence of ceramide or diluent for 45 min as described in FIG. 7A.
FIG. 28C--Flag-tagged KSR was immunoprecipitated from 0.15 mg COS-7 lysate and assayed with TTLP- or AALP-peptides for 20 min in the presence of 30 nM of the indicated lipid second messengers as described in FIG. 28A (AA: arachidonic acid; LPA: lyso phosphatidic acid; PMA: phorbol 12-myristate 13-acetate; DAG: 1,2-diacylglycerol).
KSR-bound beads were incubated with reaction buffer B plus 10 mM MnCl2, 5 μM ATP and [γ-^32 P]ATP at 22° C. for the period of time indicated in the presence of 0.3 mM synthetic Raf-peptide or substrate peptides specific for other Ser/Thr protein kinases. […] (SEQ ID NO.3). Substitution of glycines and alanines for serines and threonines generated one peptide (termed TTLP-peptide) containing only two potential phosphorylation sites at Thr^268,269 (in bold), […] (SEQ ID NO. 24), and another peptide (termed AALP-peptide; SEQ ID No.6) with no potential phosphorylation sites, […] (SEQ ID No.25). The amino acid sequences of substrate peptides specific for other protein kinases (Joseph et al., 1993) are: […] (SEQ ID NO.26) (PKA); […] (SEQ ID NO.27) (S6 kinase); […] (SEQ ID NO.28)(CK II); […] (SEQ ID NO.29) (CaM kinase II); and […] (SEQ ID NO.30) (PKC). […] Substrate peptides for PKA and PKC were from Sigma (St. Louis, Mo.). The reaction was stopped by addition of a stop solution containing 0.5 M ATP in 90% formic acid. The beads were removed by centrifugation at 5000×g for 2 min and the supernatant was loaded on P81 Whatman filter paper. The filter was air dried and washed in 4 mM Na2 H2 P2 O7, 1 mM acetic acid for one hour. The filter was baked at 90° C. for 10 min and quantified by Cerenkov counting using a Beckman LS 5000TD scintillation counter. In some experiments, samples were separated by C18 reverse-phase chromatography on HPLC (Mathias et al., 1991) to verify the results of the filter assay. Virtually identical results were obtained with both methods.

CAP kinase = assay: Phosphorylation of Raf-1 peptides by CAP kinase; assay type: biochemical, bovine (brain)

Row | Molecule | co-immunoprecipitation of KSR with Raf-1 (KSR/Raf-1 complex; 50 μM C2-ceramide, anti-Raf-1 precipitation) | co-immunoprecipitation of Raf-1 with KSR (KSR/Raf-1 complex; C2-ceramide, anti-Flag precipitation) | concentration of maximal effect (KSR [1]; C2-ceramide) | lowest effective concentration (KSR activity) (KSR [1]; C2-ceramide) | fold induction at 40 µM (KSR [1]; COS-7, 10 min, 40 μM C2-ceramide, read-out: maximal enhancement of KSR autophosphorylating activity) | activity of immunoprecipitated KSR to phosphorylate and activate Raf-1 (KSR [2]) | phosphorylation of peptide by KSR (KSR [3]) | phosphorylation of Raf-1 peptide by CAP kinase (CAP kinase)
1 | CCCCCCCCCCCCC/C=C/[C@@H](O)[C@H](CO)NC(C)=O [C2-ceramide] | significantly enhanced | dramatically enhanced | 40 µM | 50 nM | 5 to 10 | markedly enhanced |  | 
2 | RQRSTSTPNVHMVSTTLPVDSRMIE [wild type Raf-peptide] |  |  |  |  |  |  | phosphorylated to the same extent | phosphorylated
